Laboratory results as given in paper PMC6920776, “Exploring Biological Activity of 4-Oxo-4H-furo[2,3-h]chromene Derivatives as Potential Multi-Target-Directed Ligands Inhibiting Cholinesterases, β-Secretase, Cyclooxygenase-2, and Lipoxygenase-5/15” (Biomolecules, 2019).
Values joined by “and” are separate entries in the source; they are usually repeats but may differ in a detail not shown here. Equal values may be shown once. Where a name gives a salt, the structure may show the parent alone. Read-outs that look alike come from different tables or passages of the source.

Experiments:
[1] = biological target: T1, COX-2 (Homo sapiens, UniProt P35354); test: biochemical; details: duplicate runs
T1 construct: purchased Bio Vision K547
T1 sequence (P35354 18-604): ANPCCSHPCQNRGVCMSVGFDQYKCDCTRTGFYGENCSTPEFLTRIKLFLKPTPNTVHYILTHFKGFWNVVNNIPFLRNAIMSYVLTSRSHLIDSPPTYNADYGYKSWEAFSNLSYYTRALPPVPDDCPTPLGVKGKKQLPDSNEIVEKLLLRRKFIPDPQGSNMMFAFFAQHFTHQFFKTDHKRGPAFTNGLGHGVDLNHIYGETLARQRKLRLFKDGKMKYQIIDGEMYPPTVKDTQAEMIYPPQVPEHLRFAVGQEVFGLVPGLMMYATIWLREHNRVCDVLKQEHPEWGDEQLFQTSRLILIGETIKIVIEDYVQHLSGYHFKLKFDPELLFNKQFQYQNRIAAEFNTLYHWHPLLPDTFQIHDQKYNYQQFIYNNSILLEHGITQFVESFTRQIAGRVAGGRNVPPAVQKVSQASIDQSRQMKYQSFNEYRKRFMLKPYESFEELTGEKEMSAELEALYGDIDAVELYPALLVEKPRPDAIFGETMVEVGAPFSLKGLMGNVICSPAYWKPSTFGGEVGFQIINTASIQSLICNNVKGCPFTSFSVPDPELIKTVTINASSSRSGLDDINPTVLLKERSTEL
Procedure: The reagents for the COX-2 assay were prepared according to the standard protocol enclosed in the Cyclooxygenase inhibitor screening kit (Item No. K547; Bio Vision, Milpitas Blvd, Milpitas, CA USA). […] The assay mixtures in a 96-well plate were distributed as follows: two wells taken as enzyme control (10µL assay buffer) and two wells as inhibitor control (2 µL of celecoxib and 8 µL of COX assay buffer). Ten microliters of the test compounds concentrations and those of celecoxib were added to the remaining wells with the aid of a multi-channel pipette. Then, 80 µL of the reaction mix (a mixture of 76 µL COX assay buffer, 1 µL of COX probe, 2 µL of diluted COX cofactor and 1 µL of COX-2 enzyme) were added to the reaction mixture. The assay mixtures in the 96-well plate were incubated for 5 min. The reactions were initiated by the addition of 10 µL of diluted arachidonic acid and sodium hydroxide solution (10 µL of arachidonic acid and 90 µL of sodium hydroxide) to each well. The absorbance was measured using a Varioskan flash microplate spectrophotometer, and the IC50 was calculated with the aid of a graph pad prism

[2] = biological target: T2, AChE (Homo sapiens, UniProt P22303); test: biochemical; details: for Selectivity index (SI): SI = IC50 (AChE)/IC50 (BChE); for IC50: recombinant human AChE, Ellman's method, triplicate
T2 sequence (P22303 32-614): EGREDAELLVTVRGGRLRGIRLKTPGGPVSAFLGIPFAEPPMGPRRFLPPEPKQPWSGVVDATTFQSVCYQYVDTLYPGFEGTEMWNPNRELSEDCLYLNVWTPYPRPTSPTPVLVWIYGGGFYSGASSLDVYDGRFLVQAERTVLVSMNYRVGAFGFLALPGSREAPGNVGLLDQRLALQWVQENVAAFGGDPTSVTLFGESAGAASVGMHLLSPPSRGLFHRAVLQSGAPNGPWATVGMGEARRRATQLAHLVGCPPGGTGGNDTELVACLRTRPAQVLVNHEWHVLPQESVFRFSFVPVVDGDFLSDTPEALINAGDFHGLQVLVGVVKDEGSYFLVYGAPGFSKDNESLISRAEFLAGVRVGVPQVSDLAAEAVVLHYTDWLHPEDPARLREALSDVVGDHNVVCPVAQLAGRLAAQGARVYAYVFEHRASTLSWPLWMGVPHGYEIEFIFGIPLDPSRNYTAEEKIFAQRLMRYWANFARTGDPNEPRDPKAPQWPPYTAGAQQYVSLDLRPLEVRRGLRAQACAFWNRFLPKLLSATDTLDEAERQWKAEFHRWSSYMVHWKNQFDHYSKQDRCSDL

[3] = biological target: T3, soybean lipoxygenases-15 (LOX-15) (Glycine max, UniProt P08170); test: Soybean LOX-15 inhibitory assay; type: biochemical
T3 construct: purchased Cayman Chemicals 760700
T3 sequence (P08170 1-839): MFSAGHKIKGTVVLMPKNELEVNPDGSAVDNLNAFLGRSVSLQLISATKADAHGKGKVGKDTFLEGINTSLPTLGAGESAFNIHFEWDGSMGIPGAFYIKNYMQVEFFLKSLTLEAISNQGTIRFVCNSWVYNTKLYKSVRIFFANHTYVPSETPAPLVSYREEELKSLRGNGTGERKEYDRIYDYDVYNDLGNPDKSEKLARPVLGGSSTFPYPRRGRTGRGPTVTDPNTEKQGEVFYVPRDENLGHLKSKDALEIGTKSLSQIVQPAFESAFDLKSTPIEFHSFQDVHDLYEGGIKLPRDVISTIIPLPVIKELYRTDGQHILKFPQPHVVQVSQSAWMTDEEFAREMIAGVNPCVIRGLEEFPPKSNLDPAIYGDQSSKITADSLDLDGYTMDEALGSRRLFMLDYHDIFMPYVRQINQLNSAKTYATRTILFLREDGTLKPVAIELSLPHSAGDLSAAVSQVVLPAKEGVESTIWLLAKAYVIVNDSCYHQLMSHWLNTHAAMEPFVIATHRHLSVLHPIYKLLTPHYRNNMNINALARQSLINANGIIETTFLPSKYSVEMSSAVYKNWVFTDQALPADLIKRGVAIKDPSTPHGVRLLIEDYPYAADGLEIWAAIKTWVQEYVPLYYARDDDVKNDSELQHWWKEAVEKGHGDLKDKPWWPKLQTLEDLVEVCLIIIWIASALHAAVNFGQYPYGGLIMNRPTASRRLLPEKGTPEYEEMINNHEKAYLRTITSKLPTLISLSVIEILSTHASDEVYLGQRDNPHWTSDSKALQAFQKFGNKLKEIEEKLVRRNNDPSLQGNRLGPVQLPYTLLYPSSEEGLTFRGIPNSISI
Procedure: Stock solutions of the test samples prepared in DMSO were further diluted with 50 mM Tris buffer of pH 7.7 to obtain concentrations of 0.01, 0.1, 1, 10, and 100 µM. The cells of a 96-well plate where arranged as follows: two wells taken as blanks (100 µL 50mM Tris buffer pH, 7.7), two wells taken as enzyme controls (90 µL of 15-LO Standard and 10 µL of DMSO), and two as 100% initial activity wells (90 µL lipoxygenase enzyme solution and 10 µL tris buffer). Then, 90 µL of lipoxygenase enzyme solution and 10 µL of each test compound (and reference standards) from the above concentrations were added to the other wells of a 96-well plate, and the plate was incubated for 5 min at room temperature. The reaction was initiated by addition of 10 µL of the arachidonic acid to each well containing the assay mixtures. The 96-well plate was shaken for 5 min on a shaker, and 100 µL of the chromogen (solution of equal volume developing reagent 1 and 2) was added to each well to initiate the reaction. The plate was again shaken for 5 min and the absorbance read at 490 nm in a Varioskan flash microplate spectrophotometer reader. The inhibitory concentration was expressed as a percentage using the formula below. Inhibitory concentration = AInitial activity −(ASample − ABlank sample)/AInitial activity×100 where ASample is the absorbance of the reaction mixture of the test sample, ABlank sample is the absorbance of the reaction mixture containing all reagents except enzyme, and AInitial activity is the absorbance of 100% initial activity.

[4] = biological target: T4, BChE (Homo sapiens, UniProt P06276); test: biochemical; details: Ellman's method, triplicate
T4 construct: purchased Cloud-Clone Corp., through BIOCOM Africa (Pty) Ltd RPC348Hu0 2_100
T4 sequence (P06276 29-602): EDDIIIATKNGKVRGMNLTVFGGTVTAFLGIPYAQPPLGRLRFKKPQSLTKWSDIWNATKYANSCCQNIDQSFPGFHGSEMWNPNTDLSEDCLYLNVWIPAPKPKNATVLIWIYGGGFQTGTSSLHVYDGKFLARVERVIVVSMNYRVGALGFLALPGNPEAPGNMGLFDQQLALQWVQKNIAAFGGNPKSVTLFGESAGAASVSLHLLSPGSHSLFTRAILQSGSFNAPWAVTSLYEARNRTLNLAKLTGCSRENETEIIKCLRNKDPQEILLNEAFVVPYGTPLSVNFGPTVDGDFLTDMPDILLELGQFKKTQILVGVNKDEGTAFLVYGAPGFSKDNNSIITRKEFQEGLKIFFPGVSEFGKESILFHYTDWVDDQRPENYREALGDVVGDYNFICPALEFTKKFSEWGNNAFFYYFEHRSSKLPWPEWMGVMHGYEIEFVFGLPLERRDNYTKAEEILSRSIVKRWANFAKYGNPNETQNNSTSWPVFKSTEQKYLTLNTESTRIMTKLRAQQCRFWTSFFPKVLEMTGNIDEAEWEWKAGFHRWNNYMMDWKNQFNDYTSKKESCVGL
Procedure: Their anti-AChE and BChE activities were determined by spectrophotometric Ellman’s method [42]. […] The mixtures were incubated for 15 min at RT. The reaction was initiated by adding 10 µL of a mixture solution of 5 mM 5,50-dithio-bis-nitrobenzoic acid (DTNB) in 50 mM tris buffer (pH 7.7) and 10 µL acetylthiocholine (ASCh) (5 mM) in 50 mM tris buffer, pH 7.7. The hydrolysis of ASCh was determined by monitoring the formation of the yellow 5-thio-2-nitrobenzoate anion resulting from reaction of DTNB with thiocholines (SCh).
The IC50 values were determined graphically from inhibition curves (inhibitor concentration and absorbance) using the graph pad prism.

[5] = DPPH radical scavenging assay; details: 45 min in the dark, triplicate
Procedure: The DPPH radical scavenging activity of compounds 2a–i and 3a–i was evaluated following the literature method by Zhu et al.. The compounds were evaluated against ascorbic acid (Sigma Aldrich, Saint Louis, Missouri, USA) as a positive control. Various concentrations of the test compounds and control (0 µM to 40 µM) in DMSO were mixed with a solution of DPPH (0.20 mM) in methanol. The mixtures were incubated in the dark for 45 min and then the absorbances were recorded at 512 nm using Varioskan flash microplate spectrophotometer reader. All tests and analyses were run in triplicate and averaged. The inhibition was calculated in terms of percentage using the formula below: DPPH radical scavenged (%)=AbC − AbS/AbC×100 where AbC is absorbance of control and AbS the absorbance of the test sample.

[6] = biological target: T5, human LOX-5 (Homo sapiens, UniProt P09917); test: Human LOX-5 inhibitory assay; type: biochemical
T5 construct: purchased BioVision K980
T5 sequence (P09917 1-674): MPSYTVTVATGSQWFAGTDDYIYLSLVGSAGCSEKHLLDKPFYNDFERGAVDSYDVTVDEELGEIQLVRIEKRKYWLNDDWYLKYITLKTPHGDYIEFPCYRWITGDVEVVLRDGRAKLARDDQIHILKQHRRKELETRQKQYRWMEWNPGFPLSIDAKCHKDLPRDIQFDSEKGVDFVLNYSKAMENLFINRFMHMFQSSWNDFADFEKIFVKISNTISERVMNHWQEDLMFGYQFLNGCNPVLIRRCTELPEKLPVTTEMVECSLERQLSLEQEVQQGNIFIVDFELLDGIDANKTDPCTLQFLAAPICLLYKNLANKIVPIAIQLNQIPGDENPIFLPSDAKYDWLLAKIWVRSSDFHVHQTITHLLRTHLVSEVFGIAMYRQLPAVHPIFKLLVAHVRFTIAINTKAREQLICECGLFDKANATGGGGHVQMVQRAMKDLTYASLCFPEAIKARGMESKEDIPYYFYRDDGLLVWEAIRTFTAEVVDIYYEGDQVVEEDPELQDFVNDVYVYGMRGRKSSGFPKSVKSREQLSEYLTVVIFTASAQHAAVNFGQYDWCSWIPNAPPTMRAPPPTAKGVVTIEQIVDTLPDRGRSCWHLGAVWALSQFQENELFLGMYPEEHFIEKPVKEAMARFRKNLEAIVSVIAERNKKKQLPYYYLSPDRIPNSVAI
Procedure: The reagents were prepared according to the Lipoxygenase inhibitor screening kit (Item No. K980; BioVision, Milpitas Blvd, Milpitas, CA, USA) standard protocol. Stock solutions of the test compounds were prepared in DMSO, and further diluted with 50 mM Tris HCl buffer (pH 7.7) to obtain final concentrations of 0.01, 0.1, 1, 5, and 10 µM. […] The wells of a 96-well plate were arranged as follows: two wells were taken as blanks (40 µL of assay buffer) and two as enzyme controls (2 µL of LOX-5 Standard and 38 µL of tris buffer). Two microliters (2 µL) of the test compounds (various concentration of test compounds and reference standards, respectively) followed by 38 µL of LOX assay buffer were added to the other wells of the 96-well plate in duplicate. Then, 40 µL of the reaction mixture (prepared by mixing thoroughly 36 µL of LOX assay buffer, 2 µL of LOX probe and 2 µL of LOX-5 enzyme) was added to each well containing the test mixtures, and the wells were incubated for 10 min at RT. The DMSO concentration in each reaction well was 1% to prevent enzyme structural deformation and, therefore, reduced activity. […] The percentage inhibition (%) was calculated using the equation below.
% Inhibition = Control − Test/Control×100

[7] = biological target: T4, BChE; type: biochemical
Excerpt: (§1) The Lineweaver–Burk plots (plots of the inverse of velocity against the inverse of the substrate concentration) were used to ascertain the mode of inhibition of these compounds. The Dixon plots of the inverse of velocity (1/v) against the concentration of the inhibitor at each concentration of substrate were used to determine their inhibitor constants (Ki).

[8] = system: Hek293-T cells; test: MTT cytotoxicity assay, Hek293-T; details: up to a concentration of 50 μM
Procedure: (§2) Briefly, the Hek293-T cells and MCF-7 cancer cells were seeded in a 96-well plate at a density of 20 × 10^3 cells per well, and then incubated at 37 °C in 5% CO2 to allow cell attachment. The medium was removed and replaced with fresh medium containing various concentrations of the test sample and doxorubicin hydrochloride (10, 25, 50, 100, and 200 μM) and incubated for 24 h. After treatment for 24 h, 10 μL MTT (5 mg/mL) was added to each well and the plate was further incubated for 4 h. The supernatant was removed, and 100 μL of DMSO was added to each well to dissolve the resulting formazan crystals. The absorbance was read at 570 nm using the Varioskan flash microplate spectrophotometer reader and the cell viability. The percentages of cell viability were used to determine the IC50 values.

[9] = system: breast cancer MCF-7 cell line; test: MTT antigrowth assay, MCF-7; type: cell-based; details: preliminary results, read-out: IC50 antigrowth effect, MCF-7
Procedure: as §2

[10] = biological target: T6, BACE-1 (Homo sapiens, UniProt P56817); test: β-Secretase FRET inhibition assay; type: biochemical; details: pH 4.5, 60 min at 25 °C, triplicate
T6 construct: purchased Pan Vera; host or cells: baculovirus expression
T6 sequence (P56817 46-501): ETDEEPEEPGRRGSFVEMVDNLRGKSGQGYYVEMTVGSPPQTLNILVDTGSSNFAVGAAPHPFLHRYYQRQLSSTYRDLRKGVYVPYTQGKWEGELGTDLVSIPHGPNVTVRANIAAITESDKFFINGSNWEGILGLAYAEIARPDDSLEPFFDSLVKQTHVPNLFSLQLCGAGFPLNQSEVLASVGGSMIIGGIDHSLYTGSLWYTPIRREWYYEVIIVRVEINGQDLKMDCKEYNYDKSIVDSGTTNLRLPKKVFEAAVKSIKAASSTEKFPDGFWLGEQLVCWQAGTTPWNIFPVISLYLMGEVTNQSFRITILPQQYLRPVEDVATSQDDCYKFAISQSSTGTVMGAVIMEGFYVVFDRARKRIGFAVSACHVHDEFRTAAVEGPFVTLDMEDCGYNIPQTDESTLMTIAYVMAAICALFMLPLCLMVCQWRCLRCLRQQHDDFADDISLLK

[11] = biological target: T2, AChE; type: biochemical
Excerpt: as §1

[12] = biological target: T6, BACE-1; test: Kinetic study against β-secretase (Lineweaver-Burk and Dixon plots); type: biochemical
Excerpt: The Lineweaver–Burk plot (plot of the inverse of velocity (1/v) against the inverse of the substrate concentration (1/[S])) was used to ascertain the mode of inhibition of this compound.

[13] = Lineweaver-Burk and Dixon plots

Compound	IC50 [1] [µM]	Selectivity index (SI) [2]	IC50 [2]	IC50 [3] [µM]	IC50 [4] [µM]	IC50 [5] [µM]	also measured
O=Cc1coc2c(ccc3oc(-c4cccc(F)c4)cc32)c1=O [Compound 2b, 8-(3-Fluorophenyl)-4-oxo-4H-furo[2,3-h]chromene-3-carbaldehyde]	43.7 ± 0.01	1.7	15.2 ± 0.03 µM	18.6 ± 0.01	9.2 ± 0.01	27.6 ± 0.02	
O=Cc1coc2c(ccc3oc(C4=CCCCC4)cc32)c1=O [Compound 2i, 8-(Cyclohex-1-en-1-yl)-4-oxo-4H-furo[2,3-h]chromene-3-carbaldehyde]	12.1 ± 0.01	0.5	15.3 ± 0.03 µM	21.5 ± 0.02	31.6 ± 0.02	15.9 ± 0.02	
O=Cc1coc2c(ccc3oc(-c4ccc(F)cc4)cc32)c1=O [Compound 2c, 8-(4-Fluorophenyl)-4-oxo-4H-furo[2,3-h]chromene-3-carbaldehyde]	15.8 ± 0.03	1.1	30.4 ± 0.01 µM	14.3 ± 0.01	28.3 ± 0.03	7.5 ± 0.02	
O=C1O[C@H]([C@@H](O)CO)C(O)=C1O [Ascorbic acid, ascorbic acid, reference compound]						4.6 ± 0.01	
Cc1ccc(-c2cc3c(ccc4c(=O)c(C=O)coc43)o2)cc1 [Compound 2h, 8-(4-Methyphenyl)-4-oxo-4H-furo[2,3-h]chromene-3-carbaldehyde]	19.8 ± 0.03	0.8	20.9 ± 0.01 µM	9.2 ± 0.03	25.9 ± 0.03	11.6 ± 0.03	IC50 [6]: 28.7 ± 0.03 µM
O=Cc1coc2c(ccc3oc(-c4ccc(Cl)cc4)cc32)c1=O [Compound 2e, 8-(4-Chlorophenyl)-4-oxo-4H-furo[2,3-h]chromene-3-carbaldehyde]	18.6 ± 0.01	0.8	27.1 ± 0.04 µM	15.2 ± 0.04	32.6 ± 0.02	19.9 ± 0.01	
O=c1c(C=NNc2ccc(C(F)(F)F)cc2)coc2c1ccc1oc(-c3cccc(Cl)c3)cc12 [Compound 3d]	30.2 ± 0.03	0.8	24.3 ± 0.03 µM	11.8 ± 0.03	30.1 ± 0.03	32.5 ± 0.03	
2-(4-Chlorophenyl)-6-[(4-trifluoromethylphenyl)hydrazonomethyl]furo[3,2-h]chromen-5-one [Compound 3e]	10.4 ± 0.03	0.5	5.4 ± 0.02 µM		9.9 ± 0.04	25.9 ± 0.05	Ki ([7]; Dixon plot): 1.92 ± 0.01 µM; Mode of inhibition, BChE [7, 13]: non-competitive mode of inhibition; Toxicity in Hek293-T cells [8]: non-toxic; IC50 ([9]; 24 h treatment): 6.82 ± 0.02 µM; IC50 [10]: 13.6 ± 0.02 µM; IC50 ([6]; human LOX-5, duplicate, read-out: IC50 LOX-5): 28.5 ± 0.02 µM; IC50 ([3]; soybean LOX-15, duplicate runs, read-out: IC50 LOX-15): 14.9 ± 0.04 µM; Ki ([11]; Dixon plot): 1.6 ± 0.01 µM; Mode of inhibition, AChE [11, 13]: non-competitive mode of inhibition; Ki ([12]; Dixon plot, substrate 150, 300 and 450 nM): 2.5 ± 0.01 µM; Mode of inhibition, BACE-1 [12, 13]: mixed mode of inhibition
COc1ccc(-c2cc3c(ccc4c(=O)c(C=O)coc43)o2)cc1 [Compound 2f, 8-(4-Methoxyphenyl)-4-oxo-4H-furo[2,3-h]chromene-3-carbaldehyde]	13.7 ± 0.04	1.6	34.2 ± 0.02 µM	8.2 ± 0.03	21.8 ± 0.02	14.3 ± 0.02	IC50 [6]: 17.3 ± 0.01 µM
O=Cc1coc2c(ccc3oc(-c4cccc(Cl)c4)cc32)c1=O [Compound 2d, 8-(3-Chlorophenyl)-4-oxo-4H-furo[2,3-h]chromene-3-carbaldehyde]	23.1 ± 0.02	1.5	19.2 µM and 19.8 µM	22.9 ± 0.02	13.2 ± 0.05	29.1 ± 0.01	
O=c1c(C=NNc2ccc(C(F)(F)F)cc2)coc2c1ccc1oc(-c3ccccc3)cc12 [Compound 3a]	29.7 ± 0.02	0.8	15.4 ± 0.01 µM	16.3 ± 0.01	18.7 ± 0.03	15.3 ± 0.01	
Cc1ccc(-c2cc3c(ccc4c(=O)c(C=NNc5ccc(C(F)(F)F)cc5)coc43)o2)cc1 [Compound 3h]	22.4 ± 0.01	0.6	9.1 ± 0.02 µM	18.6 ± 0.03	14.2	16.3 ± 0.03	
O=Cc1coc2c(ccc3oc(-c4ccccc4)cc32)c1=O [Compound 2a, 4-Oxo-8-phenyl-4H-furo[2,3-h]chromene-3-carbaldehyde]	25.6 ± 0.01	0.8	25.1 ± 0.04 µM	12.5 ± 0.03	34.2 ± 0.02	10.1 ± 0.03	
COc1cc(OC)cc(-c2cc3c(ccc4c(=O)c(C=O)coc43)o2)c1 [Compound 2g, 8-(3,5-Dimethoxyphenyl)-4-oxo-4H-furo[2,3-h]chromene-3-carbaldehyde]	23.5 ± 0.03	1.1	25.3 ± 0.02 µM	10.6 ± 0.04	23.2 ± 0.04	8.3 ± 0.02	IC50 [6]: 24.6 ± 0.02 µM
COc1cccc2c1C(=O)c1c(O)c3c(c(O)c1C2=O)C[C@@](O)(C(=O)CO)C[C@@H]3O[C@H]1C[C@H](N)[C@H](O)[C@H](C)O1 [doxorubicin hydrochloride, reference compound]							IC50 ([9]; Homo sapiens, MCF7, 24 h treatment): 1.59 ± 0.01 µM
